# A melting point compilation (Tetko et al.; mined from patent text by program, amines drawn as free bases though some values may be those of a salt)
row,melting point [°C],Structure (SMILES)
1,208,O=c1[nH]c(=O)n(C2CC(O)C(CF)O2)cc1C=CBr (stereo not given)
2,125 to 135,Cc1noc(NS(=O)(=O)c2ccccc2-c2ccc(-c3ncco3)cc2CN(C)C(=O)c2ccc(F)cc2)c1C
3,173 to 175,CCn1ccc(Nc2cc(Cl)nn(C)c2=O)n1
4,226 to 228,O=C(Nc1ccc(-c2cccc(C(=O)O)c2)cc1)OCC1c2ccccc2-c2ccccc21
5,118 to 120,COC(=O)COc1ccc2c(O)c(C(C)=O)ccc2c1
6,84 to 85,CCOC(=O)Cc1nc(-c2ccccc2)oc1-c1ccoc1
7,170 to 172,COc1ccc(C2CC(n3cncn3)c3ccccc3N2)cc1 (stereo not given)
8,98 to 100,C=CCNc1nc(NCC=C)c2scc(-c3ccccc3)c2n1
9,190 to 192,CC(=O)Nc1ccc(C#N)c(F)c1
10,167 to 170,O=C(Nc1ccccc1)N1CCC(C2Oc3ccccc3Cn3cccc32)CC1 (stereo not given)
11,94 to 96,N#CCC(CC#N)c1ccccc1Br
12,60 to 61,CC(=O)c1c(-c2ccncc2)sc(Cl)c1C
13,127 to 130,COC(CN(C)C(=O)Nc1nnc(C(C)Oc2cccc(Cl)c2)s1)OC (stereo not given)
14,206,COc1cccc2c1CC(C(=O)NCCOc1ccc(C(=O)O)cc1)N2S(=O)(=O)c1ccc(-c2ccc(F)cc2F)cc1 (stereo not given)
15,175,COc1ccccc1CNc1ccc2cc(Nc3nc(C)no3)ccc2n1
16,191 to 192,CCCSc1sc(C(N)=O)c2c1-c1nn(S(C)(=O)=O)cc1CC2
17,103 to 105,CC(C)Sc1ccc(NC(=O)C2(C)CC2)cc1C(F)(F)F
18,88 to 90,CC(=O)OCCOc1cc(-n2c(=O)cc(C(F)(F)F)n(C)c2=O)c(F)cc1Cl
19,202,N#Cc1ncn2c(C(F)(F)F)cc(-c3cccc(C(F)(F)F)c3)nc12
20,134 to 135,CCCCc1nn(C(F)(F)F)c(C(=O)O)c1Cc1ccc(C2(C(=O)O)CC=CC2)s1
21,69 to 78,CC(Cc1c[nH]c2ccccc12)(NC(=O)OC1CCCCC1Cl)C(=O)NCCc1ccccc1 (stereo not given)
22,250,NC(Cc1cc2nccnc2cc1CP(=O)(O)O)C(=O)O (stereo not given)
23,128 to 141,COc1cc2c(cc1Nc1ncc(Cl)c(N[C@@H]3CCCC[C@H]3NS(C)(=O)=O)n1)CCN(C(=O)CN(C)C)CC2
24,103 to 104,O=C1CCCc2c1ccc(OCc1ccccc1)c2CBr

row,melting point [°C],Structure (SMILES)
1,200,COc1cccc(/C=C/C(=O)N2CC(CCl)c3c2cc([N+](=O)[O-])c2ccccc32)c1 (stereo not given)
2,83,N#Cc1cnn(-c2ccc(OC(F)(F)F)cc2Cl)c1Br
3,184 to 190,Cc1ccc(Nc2nc(-c3ccccn3)cs2)nc1
4,100 to 101,CCCCCSc1c[nH]nc1C1=CCCN(C)C1
5,207 to 209,CC(=O)Nc1ccc(-n2ccnc2S(=O)Cc2ccccc2N2CCOCC2)nc1 (stereo not given)
6,251,COc1ccc2nc(C)c(S(N)(=O)=O)n2n1
7,213 to 214,Cc1cc(OCC(O)CNC(C)(C)C)c2cc(C(N)=O)[nH]c2c1 (stereo not given)
8,146,CSc1c(CO)sc2c1CCN(C)CC2c1ccccc1 (stereo not given)
9,152 to 155,O=C1CN(NC(=O)Sc2ccccc2)C(=O)N1
10,228 to 230,N#CCCNC(=O)c1n[nH]cc1NC(=O)c1ccc(-c2ccccc2)o1
11,128 to 130,CCOc1nn(-c2cc(C(F)(F)F)ccn2)cc1CCCOc1cccc(CC(=O)O)c1
12,64 to 67,O=c1oc(-c2ccccc2)ns1
13,210 to 214,Cc1[nH]c(=S)[nH]c(=O)c1CCc1ccccc1
14,197 to 199,CCOC(=O)c1cc2cccc(O)c2[nH]1
15,80 to 81,COc1ccc(OCC(=O)N[C@@H](Cc2ccccc2)C(=O)CSCc2ccsc2)cc1
16,130,O=C(c1ccc(C(F)(F)F)cc1)c1cccc(O)c1
17,260 to 263,Clc1nnc(Cl)c2sccc12
18,115 to 117,O=COC(CCl)(CC(Cl)(Cl)Cl)c1cc(Cl)cc(Cl)c1 (stereo not given)
19,200 to 210,CCOC(=O)c1cnc2c(OC)nc(OC)cc2c1Cl
20,178 to 179,Cc1ccc(C(N)=O)cc1Br
21,140 to 144,O=C(CCC1CCCC1)Nc1ccc(N2CCC(NC[C@H](O)COc3cccc4[nH]c(=O)[nH]c34)CC2)cc1
22,> 300,CC(=O)Nc1ccc2oc(C(=O)O)cc2c1
23,255 to 265,O=C1C=C(c2c[nH]c3ccc(F)cc23)C(=O)N1
24,161 to 162,C=CCc1cc(C)c2c(c1O)C(C)(C)C(=O)N2Cc1ccccc1

row,melting point [°C],Structure (SMILES)
1,150,O=S(=O)(/C=C/c1ccccc1)c1ncc(Cl)cn1
2,105 to 107,CC(C)(C)C(F)(F)c1ccc(C[C@H](N)[C@H](O)c2cccc(Cl)c2)cc1 (racemic)
3,211 to 212,Oc1ccc2c(c1)Cc1c-2cc2ccc(O)cc2c1C=C(F)F
4,154 to 157,COC(=O)C1=C(C)NC(C)=C(C(=O)CS(=O)(=O)N(C)C)C1c1cccc([N+](=O)[O-])c1 (stereo not given)
5,188,CC1(C)CS(=O)(=O)CC(C)(C)N1CC#N
6,214 to 215,CC(=O)NCC(=O)N1CC(=O)NC1(C)C
7,211,COC(=O)c1cccc(-c2cnc3c(c2)N(Cc2ccccc2)C(=O)CN3)c1
8,162 to 163,Cc1cccc2nc(C(C)(C)NC(=O)COC3c4ccccc4-c4ccccc43)oc(=O)c12
9,116 to 117,CC(Cc1ccccc1)(C(=O)O)S(=O)(=O)c1cccs1 (stereo not given)
10,131 to 134,CC(C)OC(=O)C1(F)C(=O)NC(=O)NC1O/N=C\c1ccco1 (stereo not given)
11,241 to 242,CN(C)C(=O)/C=C/c1cnc2c(NC(=O)c3c(Cl)cccc3Cl)cccc2c1
12,78,CN(C)c1ccccc1SCc1noc(CSc2ccc(Br)cc2)n1
13,225 to 227,CN1C(=O)C(Cc2ccncc2)(Cc2ccncc2)NC1=S
14,313 to 316,N=C(N)c1ccc(-n2cnn(-c3ccc(CCC(=O)O)cc3)c2=O)cc1
15,174 to 176,CC(=O)OCC1OC(OC2C(COC(C)=O)OC(Oc3ccc(N)cc3)C(OC(C)=O)C2OC(C)=O)C(OC(C)=O)C(OC(C)=O)C1OC(C)=O (stereo not given)
16,160 to 161,CCCc1nccn1N=Cc1cc(C(C)(C)C)c(O)c(C(C)(C)C)c1
17,139 to 142,CNC(=O)c1ccc(Nc2nc(OCC3CCCCC3)c3nc[nH]c3n2)cc1
18,265 to 266,Clc1ccc2c(c1)c(-c1ccccc1)cc1nncn12
19,155 to 158,O=C1CCc2cc(C(=O)[C@H]3CC[C@H]3C(=O)O)ccc2N1 (relative stereo)
20,40 to 41,CCOC(=O)/C=C/C(C)(C)NC(=O)OC(C)(C)C
21,89 to 93,CCCCOc1cc(CNCCN(CC)CC)cc(S(N)(=O)=O)c1Cc1ccccc1
22,134 to 135,CC1=C(Cc2ccc(Cl)cc2)C(=O)C2C=CC=CC2C1=O (stereo not given)
23,137 to 138,CCOC(=O)c1sc(Oc2ccc3c(c2)OCC3)c2c1CCc1cnn(C)c1-2
24,218 to 220,N#Cc1ccc(Nc2nc(Oc3c(Br)cc(C=O)cc3Br)ccc2[N+](=O)[O-])cc1

row,melting point [°C],Structure (SMILES)
1,94 to 96,CCCn1c(OCC2CC2(Cl)Cl)nc2sc(Cl)cc2c1=O (stereo not given)
2,155 to 160,NCC1CCC(CNc2ncc3ncnc(Nc4ccc(F)c(Cl)c4)c3n2)CC1 (stereo not given)
3,61 to 62,O=C1CCSc2sccc21
4,167 to 170,CC(C)(C)OC(=O)N[C@H](Cc1ccccc1)C(=O)N1CCC[C@H]1C(=O)NCc1ccc(C#N)nc1
5,195 to 196,CNC(=O)c1cc(-c2ccc(OC)cc2)nn(CC(=O)NCc2ccccn2)c1=O
6,156 to 157,CCOC(=O)Cc1cn(Cc2ccccc2)nc1O
7,79 to 83,C#CC1(O)C(C)CC2(CC1(C)C)OC(C)C(C)O2 (stereo not given)
8,152 to 156,COc1ccc(NC(C)c2oc3ccc(F)cc3c(=O)c2-c2cccc(F)c2)cc1 (stereo not given)
9,183 to 185,CC(C)(C)OC(=O)[C@H](CCSCc1cn(C(c2ccccc2)(c2ccccc2)c2ccccc2)cn1)NC(=O)OCc1ccccc1
10,114,Cc1c(Cc2ccccc2)c(=O)n(C2CCCC2)c2nc(Nc3ccc(N4CCNCC4)cc3)ncc12
11,73 to 76,CCn1c(COC(=O)OCc2nc(C(C)C)c(Sc3cc(Cl)cc(Cl)c3)n2CC)nc(C(C)C)c1Sc1cc(Cl)cc(Cl)c1
12,125 to 126,CC(=O)N(O)Cc1ccc(C(O)C#Cc2cccs2)cc1 (stereo not given)
13,278 to 280,CC(C)(C)c1ccc(S(=O)(=O)Nc2ccc(-c3cn(C4CCCC4)c4ncnc(N)c34)cc2O)cc1
14,184,Cc1nc2scc(C)n2c(=O)c1CCN1CCC(=C(c2ccc(F)cc2)c2ccc(F)cc2)CC1
15,226 to 227,CCOC(=O)c1c(Cn2cnnc2)nc2cc(OC)c(OC)cc2c1-c1ccc(OC)c(OC)c1
16,123 to 125,COC(O)c1ccc2c(c1)C(C(Cl)(Cl)Cl)OC(C(Cl)(Cl)Cl)O2 (stereo not given)
17,131 to 133,c1ccc(CN2CCC(Nc3cccnc3)CC2)cc1
18,144 to 146,Clc1ccc2cc(CBr)c3ccsc3c2c1
19,143 to 146,COC(=O)[C@H]1C[C@H](NS(C)(=O)=O)c2c(Cl)cc(Cl)cc2N1 (relative stereo)
20,84 to 84.5,CCCCCOc1ccc(CC(C)C(=O)Oc2ccc(-c3ccc(CCC)cc3)cc2)cc1 (stereo not given)
21,92 to 95,COC(=O)Cc1c(Cl)nc(-c2ccccc2)n1Cc1ccc(C)cc1
22,80,CCCCCCCCCCOc1ccc(C(=O)c2ccc(OC(=O)[C@H]3CCCO3)cc2)cc1
23,212 to 213,Nc1ncnc2c1ncn2C1OC(CNC=O)C(O)C1O (stereo not given)
24,327 to 330,Cn1c2ccccc2c(=O)n2nc(C(N)=O)cc12

row,Structure (SMILES),melting point [°C]
1,N#Cc1ccc2c(c1)C(c1ccccc1F)=NCC(OP(=O)(N1CCOCC1)N1CCOCC1)=N2,194 to 197
2,CN1CC(CCCl)Oc2ncc(-c3ccccc3)cc2C1=S (stereo not given),156 to 158
3,NCc1ccc(Br)nc1,57 to 58
4,O=C(O)c1ncn(C(c2ccccc2)c2ccccc2)c1C(=O)O,194
